Assay results from patent US11220693B2, “Method for converting monocot plant genome sequence in which nucleic acid base in targeted DNA sequence is specifically converted, and molecular complex used therein” (NATIONAL UNIVERSITY CORPORATION KOBE UNIVERSITY, priority 2015, dated 2022).

Experiments:
[1] = system: rice (Oryza sativa. L Japonica brand; Nipponbare) seeds; test: Effective concentration of Imazamox on rice plant body under aseptic culture conditions (seed germination); assay type: in vivo
Method: Based on 1/2 MS solid medium (MS mix (Sigma), sucrose 15.0 g/L, Gelrite (Wako Pure Chemical Industries, Ltd.) 4.0 g/L, pH 5.8), media in 9 stages (0 mg/L, 0.5 mg/L, 1 mg/L, 2 mg/L, 4 mg/L, 5 mg/L, 10 mg/L, 20 mg/L, 30 mg/L) with different Imazamox concentrations were produced. Successively, chaff of rice (Oryza sativa. L Japonica brand; Nipponbare) seeds was removed, the seeds were shaken in 70% ethanol for 1 min, and sterilized by immersing in 2.5% sodium hypochlorite for 20-30 min while allowing for penetration. […]
From the above, it was determined that the effective concentration of Imazamox under the aseptic culture conditions for rice plant body was 0.5 mg/L.

rice callus = test: Effective concentration of Imazamox on rice callus under aseptic culture conditions; assay type: cell-based, Oryza sativa; details: 2N6 medium, 28 days; for proliferation state of the callus: 31.5° C.
Method: Based on 2N6 solid medium (mentioned earlier), media in 4 stages (0 mg/L, 30 mg/L, 50 mg/L, 70 mg/L) with different Imazamox concentrations were produced. Callus was induced from the scutellum part of rice seed (mentioned earlier), inoculated to 2N6 solid medium added with Imazamox, cultured at 31.5° C. for 28 days in the dark all day, and the proliferation state of the callus was confirmed.
From the above, it was determined that the effective concentration of Imazamox for rice callus was 70 mg/L.

COCc1cnc(C2=NC(C)(C(C)C)C(=O)N2)c(C(=O)O)c1 (stereo not drawn) [Imazamox]
number of seeds, germination (7 days later) ([1]; Imazamox 0.5 mg/L in 1/2 MS medium, 24 seeds): 0
germination circumstances ([1]; Imazamox 0.5 mg/L or more, 25° C., 7 days): browning of embryo stem and whitening of coleoptile was confirmed in all seeds
survival rate (%) ([1]; Imazamox 0.5 mg/L, 7 days): 0%
number of seeds, germination (7 days later) ([1]; Imazamox 1 mg/L in 1/2 MS medium, 23 seeds): 0
survival rate (%) ([1]; Imazamox 1 mg/L, 7 days): 0%
number of seeds, germination (7 days later) ([1]; Imazamox 2 mg/L in 1/2 MS medium, 24 seeds): 0
survival rate (%) ([1]; Imazamox 2 mg/L, 7 days): 0%
number of seeds, germination (7 days later) ([1]; Imazamox 4 mg/L in 1/2 MS medium, 24 seeds): 0
survival rate (%) ([1]; Imazamox 4 mg/L, 7 days): 0%
number of seeds, germination (7 days later) ([1]; Imazamox 5 mg/L in 1/2 MS medium, 24 seeds): 0
survival rate (%) ([1]; Imazamox 5 mg/L, 7 days): 0%
number of seeds, germination (7 days later) ([1]; Imazamox 10 mg/L in 1/2 MS medium, 24 seeds): 0
survival rate (%) ([1]; Imazamox 10 mg/L, 7 days): 0%
number of seeds, germination (7 days later) ([1]; Imazamox 20 mg/L in 1/2 MS medium, 24 seeds): 0
survival rate (%) ([1]; Imazamox 20 mg/L, 7 days): 0%
number of seeds, germination (7 days later) ([1]; Imazamox 30 mg/L in 1/2 MS medium, 24 seeds): 0
survival rate (%) ([1]; Imazamox 30 mg/L, 7 days): 0%
effective concentration of Imazamox for rice plant body ([1]; aseptic culture conditions, 1/2 MS medium, 7 days): 0.5 mg/L
effective concentration of Imazamox for rice callus (rice callus): 70 mg/L
proliferation state of the callus (rice callus; Imazamox 50 mg/L or below): mitotic proliferation of callus was observed
proliferation state of the callus (rice callus; Imazamox 70 mg/L): mitotic proliferation was inhibited
